Experiments:
Escherichia coli = assay: Induction of cross linking in DS pUC18 plasmid
[1] = Cytotoxicity against human NCI60 cells; assay type: functional
K562 = assay: Cytotoxicity against human K562 cells; assay type: functional

SMILES | XL50 (Escherichia coli) | GI50 [1] | LC50 [1] | TGI [1] | GI50 (K562)
COc1cc2c(cc1OCCCNC(=O)c1cc(NC(=O)c3cc(NC(=O)c4cc(NC(=O)CCCOc5cc6c(cc5OC)C(=O)N5CCC[C@H]5C=N6)cn4C)cn3C)cn1C)N=C[C@@H]1CCCN1C2=O | 0.23 µM | 0.014 µM | 22.9 µM | 0.49 µM | 0.037 µM
C=C1C[C@H]2C=Nc3cc(OCCCOc4cc5c(cc4OC)C(=O)N4CC(=C)C[C@H]4C=N5)c(OC)cc3C(=O)N2C1 [SJG-136] | 0.06 µM | 0.007 µM |  | 0.087 µM | 0.008 µM
